Our source for the IC50 values is ChEMBL document CHEMBL1157212, “Classification of estrogen receptor-beta ligands on the basis of their binding affinities using support vector machine and linear discriminant analysis” (Eur J Med Chem, 2008).

This assay deals with Estrogen receptor beta (Homo sapiens, UniProt Q92731).
Chain of Estrogen receptor beta (Q92731 whole entry): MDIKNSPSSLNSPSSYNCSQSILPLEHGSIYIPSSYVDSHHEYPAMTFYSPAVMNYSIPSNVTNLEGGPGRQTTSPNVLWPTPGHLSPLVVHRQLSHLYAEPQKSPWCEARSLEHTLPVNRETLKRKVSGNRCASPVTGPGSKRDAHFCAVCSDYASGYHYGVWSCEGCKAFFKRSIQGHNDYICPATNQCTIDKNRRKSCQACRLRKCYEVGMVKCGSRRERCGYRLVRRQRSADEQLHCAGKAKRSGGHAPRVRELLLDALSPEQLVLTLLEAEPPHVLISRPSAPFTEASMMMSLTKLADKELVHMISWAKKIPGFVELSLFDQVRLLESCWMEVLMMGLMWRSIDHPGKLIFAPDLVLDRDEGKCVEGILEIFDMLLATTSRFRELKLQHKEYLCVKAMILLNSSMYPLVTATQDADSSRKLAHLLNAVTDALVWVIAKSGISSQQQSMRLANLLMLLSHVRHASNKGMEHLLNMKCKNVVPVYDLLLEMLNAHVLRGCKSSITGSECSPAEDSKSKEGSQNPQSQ

Description: Binding affinity to ERbeta

What is called IC50 is the midpoint of a concentration-inhibition curve. On to `O=C(O)c1cc(O)cc2nc(-c3ccc(O)cc3)oc12`, for which the IC50 stood at 5000 nM. In other words, the single-digit micromolar range.

Consider `C/C=C/c1cc(O)cc2nc(-c3ccc(O)cc3)oc12`, for which the IC50 came out at 142 nM. Then `Oc1ccc(-c2nc3cc(O)cc(Br)c3o2)c(C(F)(F)F)c1`, with 1.4 nM.
